Results as given in patent US20120245344A1 (NIPPON CHEMIPHAR CO., LTD., priority 2009, published 2012).
pEC50: −log10 of the molar value.

Biological target: T1, human GPR119 (Homo sapiens, UniProt Q8TDV5)
T1 construct: expressed in transfected cells; host or cells: Flp-in T-Rex-293 cells (Invitrogen #R78007), plasmid pcDNA5/FRT/TO, expression induced with tetracycline
T1 sequence (Q8TDV5 1-335): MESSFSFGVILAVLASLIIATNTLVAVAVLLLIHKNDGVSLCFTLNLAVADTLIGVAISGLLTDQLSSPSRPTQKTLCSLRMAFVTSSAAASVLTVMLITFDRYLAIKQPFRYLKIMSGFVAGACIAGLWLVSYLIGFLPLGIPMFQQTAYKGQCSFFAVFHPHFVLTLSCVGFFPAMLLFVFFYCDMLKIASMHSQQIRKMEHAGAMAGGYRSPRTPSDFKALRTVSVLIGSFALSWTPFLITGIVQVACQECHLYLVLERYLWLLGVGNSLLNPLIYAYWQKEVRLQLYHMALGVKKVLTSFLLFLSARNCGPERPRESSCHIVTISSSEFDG
Assay: Measurement of intracellular cAMP in stable cell line expressing human GPR119 (GPR119 agonist effect)
Assay type: cell-based
Conditions: increase of intracellular cAMP, Flp-in T-Rex-293 cells expressing human GPR119, 37° C. for 30 minutes
From the text: The GPR119 agonist effect is studied by measuring the effect of an analyte on increase of intracellular amount of cAMP in human GPR119 introduced cells. The testing method is described below.
Human GPR119 gene (NM 178471) is purchased from ATCC (ATCC No. 10807349), and is amplyfied according to PCR to form BamHI site at 5′ side and Apa I site at 3′ side. The primers are […] (sequence No. 1) and […] (sequence No. 2). The PCR conditions are described below.
The double-stranded DNA is thermally denatured using a DNA polymerase (KOD-Plus-Ver. 2; TOYOBO #KOD-211) at 98° C. for 10 seconds in one cycle. The denatured single-stranded DNA is annealed with the primers at 55° C. for 30 seconds. The DNA is subjected to an extension reaction at 68° C. for 1 minute and 15 seconds. The above-mentioned steps are repeated in 35 cycles. The PCR product is inserted into pcDNA5/FRT/TO (Invitrogen #V6520-20) plasmid. Flp-in T-Rex-293 cells (Invitorogen #R78007) are transfected with the obtained plasmid. The method of transfection is conducted in accordance with the protocol of the product.
(§1) The stable cell line expressing human GPR119 prepared in the above-mentioned method is plated on a 96-well plate at the concentration of 2,500 cells/well using Dulbecco's Modified Eagle Medium (DMEM) containing 10% fetal bovine serum (FBS). Twenty-four hours after plating, tetracyclin (Invitrogen #Q10019) is added at the final concentration of 20 ng/mL to induce hGPR119 gene expression. Twenty-four hours after, the medium is removed, and the cells are stimulated with an assay buffer (0.5 mM IBMX PBS (−)) containing the test compound at 37° C. for 30 minutes. The amount of the intracellular cAMP is measured using a commercially available kit (HitHunter™ cAMP XS+Assay: GE Healthcare #90007503) and a reader (FLUOstar Optima: BMG LABTECH). The test compound is dissolved in 100% DMSO, and added at the final concentration of 1%.
Human GPR119 gene (NM 178471) was purchased from ATCC (ATCC No. 10807349), and is amplyfied according to PCR to form BamHI site at 5′ side and Apa I site at 3′ side. The primers were […] (sequence No. 1) and […] (sequence No. 2). The PCR conditions are described below. The double-stranded DNA was thermally denatured using a DNA polymerase (KOD-Plus-Ver. 2; TOYOBO #KOD-211) at 98° C. for 10 seconds in one cycle. The denatured single-stranded DNA was annealed with the primers at 55° C. for 30 seconds. The DNA was subjected to an extension reaction at 68° C. for 1 minute and 15 seconds. The above-mentioned steps were repeated in 35 cycles. The PCR product was inserted into pcDNA5/FRT/TO (Invitrogen #V6520-20) plasmid. Flp-in T-Rex-293 cells (Invitorogen #R78007) were transfected with the obtained plasmid. The method of transfection was conducted in accordance with the protocol of the product.
as §1, with “method was” for “method is”, “#Q10019) was” for “#Q10019) is”, “medium was” for “medium is”, “cells were” for “cells are”, “cAMP was” for “cAMP is”, “compound was” for “compound is”
The examination was performed by the method similar to Example 87 Pharmacological experiment 1-(1), -(2).

| SMILES | pEC50 |
| --- | --- |
| CCc1cnc(N2CCC(c3ccc(Cn4ccc5cc(S(C)(=O)=O)cc(F)c54)nc3)CC2)nc1 [Example 34, 5-Ethyl-2-[4-[2-(7-fluoro-5-methanesulfonylindol-1-ylmethyl)pyridin-5-yl]piperidin-1-yl]pyrimidine] | 7.52 |
| CC(C)(C)OC(=O)N1CCC(c2ccc(Cn3ccc4cc(S(C)(=O)=O)c(F)c(F)c43)nc2)CC1 [Example 55, tert-Butyl 4-[2-(6,7-difluoro-5-methanesulfonylindol-1-ylmethyl)pyridin-5-yl]piperidine-1-carboxylate] | 7.97 |
| CCC1CN(C(=O)OC(C)(C)C)CC=C1c1ccc(Cn2ccc3cc(S(C)(=O)=O)ccc32)nc1 (stereo not drawn) [Example 73, tert-Butyl 3-ethyl-4-[2-(5-methanesulfonylindol-1-ylmethyl)pyridin-5-yl]-3,6-dihydro-2H-pyridine-1-carboxylate] | 7.49 |
| COC(=O)c1ccc2c(ccn2Cc2ncc(C3CCN(C(=O)OC(C)(C)C)CC3)cc2F)c1 [Example 71, tert-Butyl 4-[3-fluoro-2-[5-(methoxycarbonyl)indol-1-ylmethyl)pyridin-5-yl]piperidine-1-carboxylate] | 6.72 |
| CC(C)(C)OC(=O)N1CCC(F)(c2ccc(Cn3ccc4cc(S(C)(=O)=O)ccc43)nc2)CC1 [Example 76, tert-Butyl 4-fluoro-4-[2-(5-methanesulfonylindol-1-ylmethyl)pyridin-5-yl]piperidine-1-carboxylate] | 7.37 |
| CC(C)OC(=O)N1CCC(c2cnc(Cn3ccc4cc(-n5cnnn5)cc(F)c43)c(F)c2)CC1 [Example 83, Isopropyl 4-[3-fluoro-2-[7-fluoro-5-(tetrazol-1-yl)indol-1-ylmethyl]pyridin-5-yl]piperidine-1-carboxylate] | 7.98 |
| CC(C)(C)OC(=O)N1CCC(c2ccc(Cn3ccc4cc(S(C)(=O)=O)cnc43)nc2)CC1 [Example 17, tert-Butyl 4-[2-(5-methanesulfonyl-1H-pyrrolo[2,3-b]pyridin-1-ylmethyl)pyridin-5-yl]piperidine-1-carboxylate] | 7.52 |
| CC(C)(C)OC(=O)N1CCC(c2ccc(Cn3ccc4cc(S(C)(=O)=O)ccc43)nc2)C1 (stereo not drawn) [Example 50, tert-Butyl 3-[2-(5-methanesulfonylindol-1-ylmethyl)pyridin-5-yl]pyrrolidine-1-carboxylate] | 6.43 |
| CC(C)(C)OC(=O)N1CCC(c2ccc(Cn3ccc4cc(-n5cncn5)ccc43)nc2)CC1 [Example 56, tert-Butyl 4-[2-[5-(1,2,4-triazol-1-yl)indol-1-ylmethyl]pyridin-5-yl]piperidine-1-carboxylate] | 7.58 |
| CC(C)(C)OC(=O)N1CCC(c2ccc(Cn3ccc4c(F)c(S(C)(=O)=O)ccc43)nc2)CC1 [Example 23, tert-Butyl 4-[2-(4-fluoro-5-methanesulfonylindol-1-ylmethyl)pyridin-5-yl]piperidine-1-carboxylate] | 7.29 |
| CC(C)c1nc(N2CCC(c3ccc(Cn4ccc5cc(S(C)(=O)=O)ccc54)nc3)CC2)no1 [Example 16, 5-Isopropyl-3-[4-[2-(5-methanesulfonylindol-1-ylmethyl)pyridin-5-yl]piperidin-1-yl]-[1,2,4]oxadiazole] | 7.31 |
| CC(C)(C)OC(=O)N1CCC(c2ccc(Cn3ccc4cc(S(C)(=O)=O)cc([N+](=O)[O-])c43)nc2)CC1 [Example 18, tert-Butyl 4-[2-(5-methanesulfonyl-7-nitroindol-1-ylmethyl)pyridin-5-yl]piperidine-1-carboxylate] | 7.59 |
| CC(C)(C)OC(=O)N1CCC(c2ccc(Cn3ccc4c(F)c(S(C)(=O)=O)c(F)cc43)nc2)CC1 [Example 57, tert-Butyl 4-[2-(4,6-difluoro-5-methanesulfonylindol-1-ylmethyl)pyridin-5-yl]piperidine-1-carboxylate] | 7.76 |
| CC(C)(C)OC(=O)N1CCC(c2ccc(Cn3ccc4c(F)c(S(C)(=O)=O)cc(F)c43)nc2)CC1 [Example 42, tert-Butyl 4-[2-(4,7-difluoro-5-methanesulfonylindol-1-ylmethyl)pyridin-5-yl]piperidine-1-carboxylate] | 7.64 |
| CC(C)(C)OC(=O)N1CCC(c2cnc(Cn3ccc4cc(S(C)(=O)=O)ccc43)c(Cl)c2)CC1 [Example 14, tert-Butyl 4-[3-chloro-2-(5-methanesulfonylindol-1-ylmethyl)pyridin-5-yl]piperidine-1-carboxylate] | 8.02 |
| CC(C)(C)OC(=O)N1CCC(c2ccc(CN3CCc4cc(S(C)(=O)=O)cc(F)c43)nc2)CC1 [Example 25, tert-Butyl 4-[2-(7-fluoro-5-methanesulfonylindolin-1-ylmethyl)pyridin-5-yl]piperidine-1-carboxylate] | 7.69 |
| CC(C)(C)OC(=O)N1CCC(c2ccc(Cn3ccc4cc(-n5cnnn5)cc(F)c43)nc2)CC1 [Example 41, tert-Butyl 4-[2-[7-fluoro-5-(tetrazol-1-yl)indol-1-ylmethyl]pyridin-5-yl]piperidine-1-carboxylate] | 8.43 |
| CC(C)(C)OC(=O)N1CCC(c2ccc(Cn3ccc4cc(S(C)(=O)=O)ccc43)nc2)C(C)(C)C1 (stereo not drawn) [Example 46, tert-Butyl 3,3-dimethyl-4-[2-(5-methanesulfonylindol-1-ylmethyl)pyridin-5-yl]piperidine-1-carboxylate] | 6.95 |
| CC(C)(C)OC(=O)N1CCC(c2ccc(-c3cc4cc(S(C)(=O)=O)ccc4o3)nc2)CC1 [Example 9, tert-Butyl 4-[2-(5-methanesulfonylbenzofuran-2-yl)pyridin-5-yl]piperidine-1-carboxylate] | 6.38 |
| CC1CN(C(=O)OC(C)(C)C)CCC1c1ccc(Cn2ccc3cc(S(C)(=O)=O)ccc32)nc1 (stereo not drawn) [Example 44, tert-Butyl 4-[2-(5-methanesulfonylindol-1-ylmethyl)pyridin-5-yl]-3-methylpiperidine-1-carboxylate] | 7.87 |
| CC(C)OC(=O)N1CC=C(c2ccc(Cn3ccc4cc(-n5cnnn5)cc(F)c43)nc2)C(C)C1 (stereo not drawn) [Example 67, Isopropyl 4-[2-[7-fluoro-5-(tetrazol-1-yl)indol-1-ylmethyl]pyridin-5-yl]-3-methyl-3,6-dihydro-2H-pyridine-1-carboxylate] | 7.34 |
| Cc1cc(C2CCN(C(=O)OC(C)C)CC2)cnc1Cn1ccc2cc(-n3cncn3)ccc21 [Example 59, Isopropyl 4-[3-methyl-2-[5-(1,2,4-triazol-1-yl)indol-1-ylmethyl]pyridin-5-yl]piperidine-1-carboxylate] | 6.98 |

Same assay, conditions: statement in words on Tables 10 to 13

| SMILES | GPR119 agonist effect (in words) |
| --- | --- |
| CC(C)OC(=O)N1CCC(c2cnc(Cn3ccc4cc(-n5cnnn5)cc(F)c43)c(F)c2)CC1 [Example 83, Isopropyl 4-[3-fluoro-2-[7-fluoro-5-(tetrazol-1-yl)indol-1-ylmethyl]pyridin-5-yl]piperidine-1-carboxylate] | excellent GPR119 agonist effect |
| CC(C)(C)OC(=O)N1CCC(c2ccc(Cn3ccc4cc(-n5cnnn5)cc(F)c43)nc2)CC1 [Example 41, tert-Butyl 4-[2-[7-fluoro-5-(tetrazol-1-yl)indol-1-ylmethyl]pyridin-5-yl]piperidine-1-carboxylate] | excellent GPR119 agonist effect |
